# Experimental data: US4959182A, “Method and compositions providing enhanced chemiluminescence from 1,2-dioxetanes” (priority 1989, dated 1990)
# Like-named read-outs stand apart in the source and are kept apart here.
# Experiments:
# [1] = Fluoride-triggered chemiluminescence of silyl-protected dioxetane
# Description: (§1) However, the chemiluminescent decomposition of this dioxetane can be conveniently triggered at room temperature by removal of the silyl-protecting with fluoride ion to generate the unstable, aryloxide form which cleaves to yield intense blue light.
# [2] = format: physicochemical
# [3] = tested on: Alkaline Phosphatase from Bovine Intestinal Mucosa; test: Alkaline phosphatase triggering of xanthenone-derived phosphate dioxetane; format: biochemical
# Procedure: Triggering experiments were conducted using alkaline phosphatase from bovine intestinal mucosa suspension of 5.3 mg of protein (1100 units/mg protein) per mL in 3.2 M (NH4)2 SO4 ]and the phosphate-protected dioxetane at pH 10.3 in 0.75 M 2-amino-2-methyl- 1-propanol buffer. […]. […] The rate of decay of the emission is a function of enzyme concentration while the total light emission is independent of the enzyme concentration because of turnover of the enzyme. The chemiluminescence spectrum for the phosphatase-catalyzed decomposition was obtained at room temperature in the buffer solution.
# [4] = format: physicochemical; remark: listed apart in the source
# Procedure: Rates for thermal decomposition of the stable dioxetanes were monitored by the decay of chemiluminescence of aerated solutions. A cylindrical Pyrex vial equipped with magnetic stir bar was filled with 3-4 mL of the reaction solvent, sealed with a Teflon-lined screw cap and placed in the thermostatted sample block of the chemiluminescence-measuring luminometer. Temperature control was provided by an external circulating water bath. Appropriate values for the instrument gain and optical slit size were selected. […]. The vial was sealed with a Teflon-lined screw cap to prevent evaporation when high temperatures were used. Measurement of the signal was begun by opening the shutter. The chemiluminescent decay was generally recorded for at least three half-lives. Calculation of the first-order rate constant (k) from the In (Intensity) vs. time data was performed by a computer program utilizing a standard least-squares treatment. The correlation coefficient (r) was typically at least 0.999 and k varied less than 5% between replicate samples.
# Activation parameters for decomposition of the dioxetanes were calculated from plots of In k vs. 1/T (Arrhenius eq.) or In k/t vs. 1/T (Eyring eq.) by a standard least-squares linear regression analysis.
# Activation Energies for Thermal Decomposition of Dioxetanes
# [5] = tested on: Urease; test: Triggering of hydroxy-substituted dioxetane 2a with urease in fluorescent micelles; format: biochemical; settings: 10 μL of 3×10^-3 M 2a, CTAB and 3, room temperature
# Procedure: 5. Enzymatic Triggering of Hydroxy-Substituted Dioxetane 2a with Urease in the Prescence of Fluorescent Micelles. A solution was prepared using 160 mg of CTAB and 12.4 mg of fluorescein surfactant 3 in 200 mL of distilled water. A urea solution was made by dissolving 200 mg of urea in 100 mL of distilled water with EDTA added to give a final concentration of 0.4 mM. The substrate solution for the urease experiments was obtained by mixing 10mL of each stock solution.
# Experiments were carried out with urease (Sigma) by incubation at room temperature for periods of 0.5 to 2 hours. […] The intensity of the luminescence provided a measure of the concentration of urease.
# [6] = Base-triggered chemiluminescence of dioxetanes 2a/2b in DMSO, water, CTAB micelles and micelles with fluorescent co-surfactant
# Description: The chemiluminescence quantum yield (.PHI.CL) for the decomposition of dioxetanes is defined as the ratio of einsteins of chemiluminescence emitted to moles of dioxetane decomposed. Sufficient energy is released during the reaction from the reaction enthalpy (ΔHR) plus the Arrhenius activation energy (Ea) to populate the singlet excited state of one of the carbonyl cleavage products. Therefore, the maximum quantum yield is 1.0. Another parameter of interest is the chemiexcitation quantum yield (.PHI.CE) which is defined as the ratio of excited states formed to dioxetane decomposed. The chemiexcitation quantum yield is related to the chemiluminescence quantum yield via the fluorescence quantum yield of the dioxetane cleavage (.PHI.F) through the equation: .phi.CL =.phi.CE X .phi.F.
# The same procedure as those employed in the measurement of the decay kinetics was used for the determination of chemiluminescence quantum yields with the following modifications. An accurately measured aliquot of a dioxetane stock solution of known concentration was added to 3 mL of the pre-thermostatted organic solvent or aqueous buffer. The reaction was then triggered by adding the appropriate chemical reagent or enzyme. The total light intensity was integrated by a photon-counting luminometer using an RCA A-31034A gallium-arsenide PMT cooled to -78° C.
# Spectra of the chemiluminescence from chemically or enzymatcally triggered dioxetanes were obtained by conducting the reaction in a 1-cm square quartz cuvette in the sample compartment of a Spex Fluorolog spectrofluorometer at ambient temperature. Correction for the decay of the chemiluminescence intensity during the wavelength scan was made by accumulating the spectrum in a ratio mode so that the observed spectrum was divided by the signal from an auxiliary detector (EMI 9781B) which measures the total signal as a function of time. The monochromator bandpass was typically 18 nm. For weakly emitting samples, several identical scans were performed and added together to improve the signal-to-noise ratio.
# 1. Triggering the Chemiluminescence of Hydroxy-Substituted Dioxetane 2a with Base.
# 2. […] Cationic surfactants such as cetyltrimethylammonium bromide (CTAB) can be used to increase rates for chemical triggering of chemiluminescence from appropriately substituted dioxetanes in aqueous solution. […] The dioxetane is solubilized in the micelles formed by the surfactant and NaOH is added to initiate the chemiluminescence. […] Typically, the experiments were carried out with [2b]=9.1×10^-5 M, [CTAB]=2×10^-3 M, and [OH^- ]=9.1×10^-5 M at 37° C.
# Similar experiments were conducted with the benzothiazamide surfactant 4. […] Enzymatic Triggering of Phosphate-Substituted Dioxetane 2c.
# [7] = tested on: firefly luciferase; settings: cationic surfactant; cited from earlier work
# [8] = Fluorescence of ester cleavage product / self-quenching of fluorescer; format: physicochemical
# Description: as §1
# In general the molar ratio of the dioxetane to fluorescent compound is between about 1,000 to 1 and 1 to 1 whether in solution or in a solid composition.
# [9] = thermal decomposition in xylene
smiles,measurement,setting,value
COC1(c2cccc(O[Si](C)(C)C(C)(C)C)c2)OOC12C1CC3CC(C1)CC2C3 (stereo not drawn),decomposition on the laboratory bench,"in o-xylene, several months",no detectable decomposition
same,activation energy,thermal decomposition,28.4 kcal/mol
same,chemiluminescence efficiency,[1],25%
same,chemiluminescence quantum yield,[1],0.25
same,efficiency for the formation of the singlet excited ester,[1]; corrected for fluorescence quantum yield of the ester,57%
same,maximum of the chemiluminescence spectrum,"[1]; fluoride, DMSO",470 nm
O=P(O)(O)Oc1ccc2c(c1)Oc1ccccc1C21OOC12C1CC3CC(C1)CC2C3 (stereo not drawn),half-life,[2]; 25° C.,4380 days
same,spontaneous decomposition in aqueous buffers,[2]; aqueous buffers,very slow spontaneous decomposition
same,activation energy,[2]; thermal,30.7 kcal/mol
same,period of chemiluminescence decay,"[3]; 4.2×10^-6 M dioxetane, 1.8 μg/mL protein, pH 10.3, 37° C.",3 min
same,total light emission vs dioxetane concentration,"[3]; pH 10.3, 37° C.",linearly dependent on the dioxetane concentration
same,"background luminescence from non-enzymatic hydrolysis, of enzymatic","[3]; pH 10.3 buffer, over 3 min, 37° C.",0.2%
"COC1(c2cccc(O)c2)OOC12C1CC3CC(C1)CC2C3 (stereo not drawn) [2a, 4-(3-Hydroxyphenyl)-4-methoxyspiro[1,2-dioxetane-3,2'-adamantane]]",half-life,"[4]; in xylene, 25° C., read-out: t1/2 at 25° C. (converted)",1500 days
same,Ea,[4]; [9],28.3
same,Log A,[4]; [9],12.5
same,k(sec^-1) at 25° C.,"[4]; thermal decomposition in xylene, 25° C.",5.38e-09 s⁻¹
same,luminescence after incubation with urease,[5],produced chemiluminescence
same,period of chemiluminescence decay,"[6]; 10^-4 M, excess tetra-n-butylammonium hydroxide, DMSO, room temperature",several minutes
same,chemiluminescence quantum yield (.PHI.CL),[6]; base in DMSO,0.25
same,light yield (chemiluminescence quantum yield),[6]; base in water,8.9×10^-6
same,emission maximum for the chemiluminescence,"[6]; tetra-n-butylammonium hydroxide in DMSO, room temperature",470 nm
"CCCCCCCCCCCCCCCC[N+](C)(C)C.[Br-] [CTAB, cetyltrimethylammonium bromide]",inhibition of the catalytic activity of the luciferase,[7],complete inhibition
CCCCCCCCCCCCCC(=O)Nc1ccc2c(c1)C(=O)OC21c2ccc(O)cc2Oc2cc(O)ccc21 [compound 3],self-quenching when used alone in solution,[8]; no CTAB,quenches itself when used alone in solution
COC(=O)c1cccc(O)c1 [methyl 3-hydroxylbenzoate],fluorescence quantum yield (.PHI.^F),[8]; ester cleavage product under conditions of fluoride triggering,0.44
